Test results published in PubChem BioAssay (NCI).
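Dose response: 5 concentrations. Exposure: 48 h. Format: 96-well plates. Endpoint: linear interpolation; highest concentration if not reached. GI50 = concentration required for 50% inhibition of growth. TGI denotes the concentration required for complete inhibition of growth.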

Tests used:
Assay in all cases: NCI-60 cell line screen, 48 h
NCI/ADR-RES ovarian = test system: NCI/ADR-RES ovarian
COLO 205 colon = test system: COLO 205 colon
CAKI-1 renal = test system: CAKI-1 renal
SNB-19 CNS = test system: SNB-19 CNS
U251 CNS = test system: U251 CNS
TK-10 renal = test system: TK-10 renal
HT29 colon = test system: HT29 colon
HL-60(TB) leukemia = test system: HL-60(TB) leukemia
HOP-62 NSCLC = test system: HOP-62 NSCLC
RXF 393 renal = test system: RXF 393 renal

Row | Compound | GI50 (NCI/ADR-RES ovarian) [µM] | TGI (NCI/ADR-RES ovarian) [µM] | GI50 (COLO 205 colon) [µM] | TGI (COLO 205 colon) [µM] | GI50 (CAKI-1 renal) [µM] | TGI (CAKI-1 renal) [µM] | GI50 (SNB-19 CNS) [µM] | TGI (SNB-19 CNS) [µM] | GI50 (U251 CNS) [µM] | TGI (U251 CNS) [µM] | GI50 (TK-10 renal) [µM] | TGI (TK-10 renal) [µM] | GI50 (HT29 colon) [µM] | GI50 (HL-60(TB) leukemia) [µM] | TGI (HL-60(TB) leukemia) [µM] | GI50 (HOP-62 NSCLC) [µM] | TGI (HOP-62 NSCLC) [µM] | TGI (HT29 colon) [µM] | GI50 (RXF 393 renal) [µM] | TGI (RXF 393 renal) [µM]
1 | C[C@@H](O)[C@@H](C)Oc1nc(Nc2ccc(S(=N)(=O)C3CC3)cc2)ncc1C(F)(F)F (stereo not given in full) | 0.132 | 28.5 | 0.0158 | 0.0328 | 0.039 | > 100 | 0.0309 | 43 | 0.0252 | 13.2 | 0.0377 | > 45.9 | 0.033 | 0.0183 | 0.0544 | 0.0283 | 16.4 |  |  | 
2 | COc1ccc(C(=O)/C=C/c2sc(Cl)nc2Cl)cc1 | 2.55 | 10.2 | 2.28 | 6.74 | 1.7 | 5.45 | 1.99 | 4.25 | 1.68 | 3.83 | 4.57 | 30.3 | 1.89 | 1.95 | 4.63 | 4.59 | 21.2 | 4.66 | 1.28 | 3.02
3 | CNC(=O)c1cc(Oc2ccc3nc(NC(=O)Nc4ccc(CN5CCOCC5)c(C(F)(F)F)c4)sc3c2)ccn1 | 2.07 | 5.37 | 2.1 | 4.58 | 2.05 | 6.83 | 3.82 | 16.4 | 1.77 | 3.54 | 4.45 | 14.7 | 2.14 | 2.7 | 7.41 | 2.82 | 10.1 | 5.5 | 1.81 | 4.03
4 | Nc1nc(=O)n(C2CC(O)C(CO)O2)cc1F (stereo not given) | 0.107 | > 100 |  | > 100 | < 0.0119 | > 100 |  |  | < 0.0506 | > 100 | > 100 | > 100 | < 0.0489 | > 80.8 | > 100 |  | > 100 | > 100 | > 57.8 | > 100
5 | CC(C)C[C@H](CC(=O)O)C(=O)N[C@@H](Cc1c[nH]c2ccccc12)C(=O)N[C@@H](C)c1ccccc1 | > 25 | > 25 | > 25 | > 25 | > 25 | > 25 | > 25 | > 25 | > 25 | > 25 | > 25 | > 25 | > 25 |  |  | > 25 | > 25 | > 25 | > 25 | > 25
6 | Nc1n[n+]([O-])c2cc([N+](=O)[O-])ccc2[n+]1[O-] |  | 32.8 |  | 19 |  | 20.6 |  | 31.1 |  | 18.5 |  | 86.1 |  |  | 7.47 |  | 22.3 | 10.1 |  | 
7 | OCC#CCOCC#Cc1ccccc1C#CCOCC#CCO | 46.6 | > 100 |  |  | 82.8 | > 100 |  |  |  |  | 24.4 | 68.8 |  | 47.4 | > 100 |  |  |  | 28.8 | 82.4
